The results in this text go back to paper PMC7318243, “Computationally Empowered Workflow Identifies Novel Covalent Allosteric Binders for KRAS^G12C” (Chemmedchem, 2020).

The target in experiment [1] is T1, KRAS^G12C (recombinant KRAS mutant G12C, C51S, C80L, C118S) (Homo sapiens, UniProt P01116, C118S/C51S/C80L/G12C).
T1 construct: made in house
The experiment is described as follows: Covalent binding assay by mass spectrometry (intact mass, % covalent adduct). The note with it: for MS assay [% binding] (KRAS^G12C bound fraction): 25 µM protein, 25 µM compound, room temperature, 2 h. The method, then:
(§1) One of the most synthetically accessible compounds, 1,6‐naphthyridin‐5(6H)‐one (1), was prepared (Table 1; Scheme S1). Structurally close to 1, isoquinolin‐1(2H)‐one 2 derivatives were also considered for the exploration of structure‐activity relationships (SAR). To measure the proportion of inhibitor reacting with Cys12 of the KRAS^G12C mutant, the bound/unbound protein ratio was quantified by mass spectrometry (MS). Then, the inhibition potency of these compounds towards KRAS^G12C was evaluated in biochemical assays measuring the activation of GDP‐bound KRAS^G12C or KRAS^WT by SOS1.19 […]
3.4 Covalent binding assay by mass spectrometry
The percentage of covalent adduct formation at KRAS G12C was determined by intact mass determination. To this end, 25 µM recombinant KRAS mutant (G12C , C51S, C80L, C118S) was incubated with 25 µM compound (1% v/v DMSO final concentration) in 50 mM Tris, pH 8.0, 50 mM NaCl at room temperature for 2 h. Reaction mixture (20 µL) was acidified by addi tion of 4% v/v TFA (4 µL). LC-MS analysis was performed using a Waters SYNAPT G2 -S quadrupole time -of-flight mass spectrometer connected to a Waters nanoA CQUITY UPLC system. Samples were loaded onto a 2.1 × 5 mm MassPrep C4 guard column (Waters) and desalted with a short gradient (3 min) of increasing concentration of acetonitrile at a flow rate of 100 µL/min. Spectra were analyzed by using MassLynx v4.1 software and deconvoluted with the MaxEnt1 algorithm. Percent conversion was determined by the ratio of signal intensities of […] and KRASG12C + inhibitor. […]

The target of another experiment is T2, KRAS^G12C (Homo sapiens, UniProt P01116, G12C).
T2 construct: KRASG12C (aa 1–169, G12C) were produced for the biochemical assay; made in house
The experiment is described as follows: Biochemical assay: KRAS^G12C activation by SOS1CAT (HTRF, fluorescent GTP loading). The settings on record: for IC50: 180 min pre-incubation with KRAS before addition of SOS1. The method, then: as §1
(§2) 3.3 Biochemical activity assays
(§3) Measurement of (i) KRASG12C activation by SOS1CAT and (ii) wild-type KRAS activation by SOS1CAT was performed following the previously described protocol, [19] with a pre-incubation time of the test compound with KRAS proteins extended to 180 min before addi tion of SOS1.
(§4) This assay quantifies SOS1 CAT mediated loading of KRAS G12C–GDP with a fluorescent GTP analogue. Detection of successful loading was achieved by measuring resonance energy transfer from anti-GST-terbium (FRET donor) bound to GST -KRASG12C to the loaded fluorescent GTP analogue (FRET acceptor). The fluorescent GTP analogue EDA –GTP–DY-647P1 [2'/3'-O-(2-aminoethyl-carbamoyl)guanosine-5'-triphosphate labelled with DY-647P1 (Dyomics GmbH, Germany)] was synthesized by Jena Bioscience (Germany) a nd supplied as a 1 mM aqueous solution. A KRASG12C working solution was prepared in assay buffer [10 mM HEPES pH 7.4 (AppliChem), 150 mM NaCl (Sigma), 5 mM MgCl2 (Sigma), 1 mM DTT (Thermo Fisher), 0.05% BSA Fraction V pH 7.0 (ICN Biomedicals), 0.0025% (v/v) Igepal (Sigma)] containing 100 nM GST-KRASG12C and 2 nM anti-GST-terbium (Cisbio, France). A SOS1 CAT working solution was prepared in an assay buffer containing 20 nM SOS1CAT and 200 nM EDA–GTP–DY-647P1. An inhibitor control solution was prepared in an assay buffer containing 200 nM EDA–GTP–DY-647P1 without […]
SOS1CAT. All steps of the assay were performed at 20 °C. A volume of 2.5 µL of the KRASG12C working solution was added to all wells of the test plate using a Multidrop dispenser (Thermo LabSystems). After 180 min, 2.5 µL of the SOS1CAT working solution was added to all wells, except for the inhibitor control solution wells. After 30 min incubation, HTRF was measured. […]
(§5) SYNAPT G2-S quadrupole time-of-flight mass spectrometer connected to a Waters nanoAcquity UPLC system. Samples were loaded on a 2.1 x 5 mm mass prep C4 guard column (Waters) and desalted with a short grad ient (3 min) of increasing concentrations of acetonitrile at a flow rate of 100 µL/min. Spectra were analyzed by using MassLynx v4.1 software and deconvoluted with the MaxEnt1 algorithm. Percent of conversion was determined by the ratio of signal intensiti es of apo-KRAS and KRAS + inhibitor.
In general terms: Time-resolved FRET reads energy transfer from a long-lived donor to a nearby acceptor.

A further experiment has as its target T3, KRAS^WT (Homo sapiens, UniProt P01116).
T3 construct: The proteins KRASWT (aa 1–169, wild type), SOS1CAT (aa 564–); made in house
In words: Biochemical assay: KRAS^WT activation by SOS1CAT (HTRF, fluorescent GTP loading). The note with it: 180 min pre-incubation with KRAS before addition of SOS1. The method, then: as §1, §2, §3, §4
SOS1CAT. All steps of the assay were performed at 20 °C. A volume of 2.5 µL of the KRASG12C working solution was added to all wells of the test plate using a Multidrop dispenser (Thermo LabSystems). After 180 min, 2.5 µL of the SOS1CAT working solution was added to all wells, except for the inhibitor control solution wells. After 30 min incubation, HTRF was measured.
In the KRASWT activation by SOS1cat assay, human SOS1CAT mediated loading of GST-KRASWT– GDP was quantified with a fluorescent GTP analogue. The assay was performed as described above for the KRASG12C activation. […]
as §5

As to `C=CC(=O)N1CCC(c2cc3cc(O)c(-c4ncccc4F)cc3c(=O)[nH]2)C1` (stereo not drawn) [Compound 12], in experiment [1], the “Ability to bind / react with Cys12 of KRAS^G12C, in words” value is “unable to react with Cys12 of KRAS^G12C” and the “MS assay [% binding] (KRAS^G12C bound fraction)” value amounted to 0%.

In the case of `C=CC(=O)N1CCC(c2cc3ccc(-c4ccc(F)cc4F)cc3c(=O)[nH]2)C1` (stereo not drawn) [Compound 3, 7-(2,4-Difluorophenyl)-3-[1-(prop-2-enoyl)pyrrolidin-3-yl]isoquinolin-1(2H)-one], the “MS assay [% binding] (KRAS^G12C bound fraction)” value in experiment [1] stood at 34%. Further, the half-inhibitory concentration (IC50) was 5 µM against KRAS^G12C and above 20 µM against KRAS^WT.

As for `C=CC(=O)N1CCC(c2cc3ccc(-c4cccc5ncccc45)cc3c(=O)[nH]2)C1` (stereo not drawn) [Compound 6, 3-[1-(Prop-2-enoyl)pyrrolidin-3-yl]-7-(quinolin-5-yl)isoquinolin-1(2H)-one], in experiment [1], the “MS assay [% binding] (KRAS^G12C bound fraction)” value is on record as 20%. The 50% inhibitory concentration (IC50) against KRAS^G12C was above 16 µM; against KRAS^WT it was above 20 µM.

With `C=CC(=O)N1CCC(c2nc3ccc(-c4c(O)cccc4F)cc3c(=O)[nH]2)C1` (stereo not drawn) [Compound 11, 6-(2-Fluoro-6-hydroxyphenyl)-2-[1-(prop-2-enoyl)pyrrolidin-3-yl]quinazolin-4(3H)-one], the “MS assay [% binding] (KRAS^G12C bound fraction)” value in experiment [1] stood at 59%. The half-maximal inhibitory concentration (IC50) against KRAS^G12C was 4.9 µM; at KRAS^WT it was above 20 µM.

As to `C=CC(=O)N1CCC(c2cc3cc(Cl)c(-c4c(O)cccc4F)cc3c(=O)[nH]2)C1` (stereo not drawn) [Compound 7, 6-Chloro-7-(2-fluoro-6-hydroxyphenyl)-3-[1-(prop-2-enoyl)pyrrolidin-3-yl]isoquinolin-1(2H)-one], the “MS assay [% binding] (KRAS^G12C bound fraction)” value in experiment [1] was 51%. Further, the IC50 against KRAS^G12C is 14.6 µM; on KRAS^WT it was above 20 µM.

In the case of `C=CC(=O)N1CCC(c2cc3ccc(-c4cc(F)cc(F)c4)cc3c(=O)[nH]2)C1` (stereo not drawn) [Compound 4, 7-(3,5-Difluorophenyl)-3-[1-(prop-2-enoyl)pyrrolidin-3-yl]isoquinolin-1(2H)-one], in experiment [1], the “MS assay [% binding] (KRAS^G12C bound fraction)” value amounted to 0%. Further, the IC50 against KRAS^G12C and at KRAS^WT was above 20 µM throughout.

On to `C=CC(=O)N1CCC(c2cc3ccc(-c4c(O)cccc4F)cc3c(=O)n2C)C1` (stereo not drawn) [Compound 10], for which, in experiment [1], the “Ability to bind / react with Cys12 of KRAS^G12C, in words” value is “inability to bind KRAS^G12C” and the “MS assay [% binding] (KRAS^G12C bound fraction)” value is given as 11%. Also, at KRAS^G12C, the “KRAS^G12C activity, in words” value is “inactive” and the IC50 is above 20 µM. The compound also had an IC50 against KRAS^WT above 20 µM.

For the compound `C=CC(=O)N1CCC(c2cc3ccc(-c4c(O)cccc4F)cc3c(=O)[nH]2)CC1` [Compound 8], the “MS assay [% binding] (KRAS^G12C bound fraction)” value in experiment [1] was found to be 0%. At KRAS^G12C, the “KRAS^G12C activity, in words” value was “inactive” and the IC50 is above 20 µM. Besides, the IC50 on KRAS^WT was above 20 µM.

As for `C=CC(=O)N1CCC(c2cc3ccc(-c4ccccc4CC)cc3c(=O)[nH]2)C1` (stereo not drawn) [Compound 5, 7-(2-Ethylphenyl)-3-[1-(prop-2-enoyl)pyrrolidin-3-yl]isoquinolin-1(2H)-one], in experiment [1], the “MS assay [% binding] (KRAS^G12C bound fraction)” value is given as 60%. Further, the IC50 was 8 µM against KRAS^G12C and above 20 µM at KRAS^WT.

For `C=CC(=O)N1CCCC(c2cc3ccc(-c4c(O)cccc4F)cc3c(=O)[nH]2)C1` (stereo not drawn) [Compound 9], the “MS assay [% binding] (KRAS^G12C bound fraction)” value in experiment [1] came out at 0%. Moreover, on KRAS^G12C, the “KRAS^G12C activity, in words” value is “inactive”. The 50% inhibitory concentration (IC50) against KRAS^G12C and on KRAS^WT was above 20 µM each time.

A word on the IC50: it is the midpoint of a concentration-inhibition curve.
